Measured values: ChEMBL document CHEMBL2074066, “Fluorescent substrates of sister-P-glycoprotein (BSEP) evaluated as markers of active transport and inhibition: evidence for contingent unequal binding sites” (Pharm Res, 2003)

Assays:
Assay type in all cases: functional, cell-based
[1] = biological target: T1, Bile salt export pump (Homo sapiens, UniProt O95342); assay: TP_TRANSPORTER: inhibitory effect of typical BSEP inhibitors (Verapamil & Cyclosporin A) in SK-E2 cells (expressing BSEP)
[2] = biological target: T1, Bile salt export pump; assay: TP_TRANSPORTER: increase in dihydrofluorescein intracellular accumulation (dihydrofluorescein: 1 uM) in SK-E2 cells (expressing BSEP); conditions: for Activity: sk-e2
[3] = biological target: T1, Bile salt export pump; assay: TP_TRANSPORTER: increase in bodipy intracellular accumulation (Bodipy: 0.2 uM) in SK-E2 cells (expressing BSEP); conditions: for Activity: human, sk-e2

T1 sequence (O95342 whole entry): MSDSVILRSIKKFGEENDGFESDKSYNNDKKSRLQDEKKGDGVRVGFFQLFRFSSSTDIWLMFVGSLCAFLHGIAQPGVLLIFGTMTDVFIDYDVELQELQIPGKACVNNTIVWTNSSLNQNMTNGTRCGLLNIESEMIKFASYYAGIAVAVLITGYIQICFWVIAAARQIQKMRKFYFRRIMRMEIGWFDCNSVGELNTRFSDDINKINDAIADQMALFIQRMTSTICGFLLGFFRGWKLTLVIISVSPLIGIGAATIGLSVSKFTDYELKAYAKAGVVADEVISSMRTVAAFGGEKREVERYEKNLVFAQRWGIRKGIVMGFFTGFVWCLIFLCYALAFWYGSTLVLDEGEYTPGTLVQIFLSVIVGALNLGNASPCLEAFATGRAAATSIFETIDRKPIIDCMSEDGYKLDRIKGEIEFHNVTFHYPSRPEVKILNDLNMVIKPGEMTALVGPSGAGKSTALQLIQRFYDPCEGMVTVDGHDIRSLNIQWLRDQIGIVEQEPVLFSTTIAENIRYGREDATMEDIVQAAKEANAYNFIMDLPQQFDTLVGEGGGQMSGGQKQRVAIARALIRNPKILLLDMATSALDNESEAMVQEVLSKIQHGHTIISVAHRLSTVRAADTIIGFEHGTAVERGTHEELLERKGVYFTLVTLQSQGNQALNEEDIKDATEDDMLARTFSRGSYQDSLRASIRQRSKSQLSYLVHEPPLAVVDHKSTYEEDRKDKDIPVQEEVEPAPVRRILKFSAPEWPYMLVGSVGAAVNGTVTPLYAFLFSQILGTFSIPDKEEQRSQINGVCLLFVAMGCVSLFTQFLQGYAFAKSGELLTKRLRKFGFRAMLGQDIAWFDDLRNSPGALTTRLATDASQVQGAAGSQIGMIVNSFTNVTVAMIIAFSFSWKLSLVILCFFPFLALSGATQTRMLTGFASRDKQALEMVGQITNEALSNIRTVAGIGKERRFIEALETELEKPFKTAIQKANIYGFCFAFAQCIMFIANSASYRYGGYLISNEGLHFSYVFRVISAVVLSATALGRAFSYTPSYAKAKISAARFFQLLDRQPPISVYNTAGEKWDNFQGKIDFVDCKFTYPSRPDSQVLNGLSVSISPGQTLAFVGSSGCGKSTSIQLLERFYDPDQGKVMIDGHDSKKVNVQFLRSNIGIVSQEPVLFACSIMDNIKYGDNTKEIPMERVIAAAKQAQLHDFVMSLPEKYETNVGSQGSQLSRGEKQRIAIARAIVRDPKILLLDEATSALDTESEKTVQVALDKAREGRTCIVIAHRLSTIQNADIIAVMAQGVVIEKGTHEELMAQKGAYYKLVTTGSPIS

SMILES	Activity [1]	IC50 [2]	further results
COc1cccc2c1C(=O)c1c(O)c3c(c(O)c1C2=O)C[C@@](O)(C(C)=O)C[C@@H]3O[C@H]1C[C@H](N)[C@H](O)[C@H](C)O1 [DAUNORUBICIN]	is not a substrate [-]	–	–
CC[C@]1(O)C[C@@H]2CN(CCc3c([nH]c4ccccc34)[C@@](C(=O)OC)(c3cc4c(cc3OC)N(C)[C@H]3[C@@](O)(C(=O)OC)[C@H](OC(C)=O)[C@]5(CC)C=CCN6CC[C@]43[C@@H]65)C2)C1 [VINBLASTINE]	–	62 µM	IC50 [3]: 115 µM
CCN1C(=C/C=C/c2n(CC)c3cc(Cl)c(Cl)cc3[n+]2CC)N(CC)c2cc(Cl)c(Cl)cc21.[I-]	is not a substrate [-]	–	–
CN(C)CCCN1c2ccccc2Sc2ccc(Cl)cc21 [CHLORPROMAZINE]	–	33.5 µM	IC50 [3]: 30.9 µM
CC(=O)OCOC(=O)CN(CC(=O)OCOC(C)=O)Cc1c(OC(C)=O)ccc2c1Oc1c(ccc(OC(C)=O)c1CN(CC(=O)OCOC(C)=O)CC(=O)OCOC(C)=O)C21OC(=O)c2ccccc21	is not a substrate [-]	–	–
CC[n+]1cc(N(C)C)cc2ccc(/C=C/C=C/c3ccc(N(C)C)cc3)cc21	is not a substrate [-]	–	–
COC(=O)c1ccccc1-c1c2ccc(=N)cc-2oc2cc(N)ccc12.Cl [RHODAMINE123]	is not a substrate [-]	–	–
C[C@H](CCC(=O)NCCS(=O)(=O)O)[C@H]1CC[C@H]2[C@@H]3CC[C@@H]4C[C@H](O)CC[C@]4(C)[C@H]3CC[C@]12C [TAUROLITHOCHOLIC ACID]	–	189 µM	Activity [3]: is not an inhibitor [-]
CO[C@H]1/C=C/O[C@@]2(C)Oc3c(C)c(O)c4c(O)c(cc(O)c4c3C2=O)NC(=O)/C(C)=C\C=C\[C@H](C)[C@H](O)[C@@H](C)[C@@H](O)[C@@H](C)[C@H](OC(C)=O)[C@@H]1C [RIFAMYCIN]	–	12.2 µM	IC50 [3]: 206 µM
CC(=O)Oc1cc2c(cc1Cl)C(c1c(C(=O)O)cccc1C(=O)O)c1cc(Cl)c(OC(C)=O)cc1O2.CC(=O)Oc1cc2c(cc1Cl)C(c1cc(C(=O)O)ccc1C(=O)O)c1cc(Cl)c(OC(C)=O)cc1O2	is not a substrate [-]	–	–
Cc1c(C)c2c(c(C)c1O)CCC(C)(COc1ccc(CC3SC(=O)NC3=O)cc1)O2 (centres undefined) [TROGLITAZONE]	–	66.4 µM	–
COc1cccc2c1C(=O)c1c(O)c3c(c(O)c1C2=O)C[C@@](O)(C(=O)CO)C[C@@H]3O[C@H]1C[C@H](N)[C@H](O)[C@H](C)O1 [DOXORUBICIN]	is not a substrate [-]	–	–
C=C[C@H]1C[N@@]2CC[C@H]1C[C@@H]2[C@@H](O)c1ccnc2ccc(OC)cc12 [QUINIDINE]	–	–	Activity [2]: is not an inhibitor [-]
O=C(O)c1ccccc1C1c2ccc(O)cc2Oc2cc(O)ccc21 [FLUORESCIN]	substrate [+]	–	–
Cc1cc(C)n2c1C=C1C=CC(CCCCCCCCCCCC(=O)OC3CC[C@@]4(C)C(=CC[C@@H]5[C@@H]4CC[C@]4(C)C(C(C)CCCC(C)C)CC[C@@H]54)C3)=[N+]1[B-]2(F)F (some centres undefined) [CHOLESTERYL BODIPY FL C12]	is not a substrate [-]	–	–
O=C1OC2(c3ccc(O)cc3Oc3cc(O)ccc32)c2ccccc21 [FLUORESCEIN]	substrate [+]	–	–
CCOc1ccc(-c2nc3cc(-c4nc5cc(N6CCN(C)CC6)ccc5[nH]4)ccc3[nH]2)cc1	is not a substrate [-]	–	–
CN(C)c1ccc2c(-c3ccc(CCl)cc3)c3ccc(=[N+](C)C)cc-3oc2c1.[Br-] [TETRAMETHYLROSAMINE]	is not a substrate [-]	–	–
CC(C)[C@@H]1NC(=O)[C@H](C)OC(=O)[C@@H](C(C)C)NC(=O)[C@@H](C(C)C)OC(=O)[C@H](C(C)C)NC(=O)[C@H](C)OC(=O)[C@@H](C(C)C)NC(=O)[C@@H](C(C)C)OC(=O)[C@H](C(C)C)NC(=O)[C@H](C)OC(=O)[C@@H](C(C)C)NC(=O)[C@@H](C(C)C)OC1=O [VALINOMYCIN]	–	7.2 µM	Activity [3]: is not an inhibitor [-]
COC(=O)[C@H]1[C@H]2C[C@@H]3c4[nH]c5cc(OC)ccc5c4CCN3C[C@H]2C[C@@H](OC(=O)c2cc(OC)c(OC)c(OC)c2)[C@@H]1OC [RESERPINE]	–	10.2 µM	Activity [3]: is not an inhibitor [-]
O=C(O[C@@H]1Cc2c(O)cc(O)cc2O[C@@H]1c1cc(O)c(O)c(O)c1)c1cc(O)c(O)c(O)c1 [EPIGALOCATECHIN GALLATE]	–	–	Activity [2]: is not an inhibitor [-]; IC50 [3]: 214 µM
O=C(CI)Nc1ccc(-c2c3ccc(=O)cc-3oc3cc(O)ccc23)c(C(=O)O)c1 [5-Iodoacetamidofluorescein]	is not a substrate [-]	–	–
CN(CCOC(=O)CI)c1ccc([N+](=O)[O-])c2nonc12	is not a substrate [-]	–	–
CC(=O)OCOC(=O)CN(CC(=O)OCOC(C)=O)c1ccc(C)cc1OCCOc1cc(-c2c3cc(Cl)c(=O)cc-3oc3cc(OCOC(C)=O)c(Cl)cc23)ccc1N(CC(=O)OCOC(C)=O)CC(=O)OCOC(C)=O	is not a substrate [-]	–	–
CC(C)/N=c1\cc2n(-c3ccc(Cl)cc3)c3ccccc3nc-2cc1Nc1ccc(Cl)cc1 [CLOFAZIMINE]	–	28.7 µM	–
CN/C(=N/CCSCc1nc[nH]c1C)NC#N [CIMETIDINE]	–	–	Activity [2]: is not an inhibitor [-]; Activity [3]: is not an inhibitor [-]
